Laboratory results reported in ChEMBL document CHEMBL5113519, “Discovery of Novel Imidazo[4,5-c]quinoline Derivatives to Treat Inflammatory Bowel Disease (IBD) by Inhibiting Multiple Proinflammatory Signaling Pathways and Restoring Intestinal Homeostasis” (J Med Chem, 2022).
Active and inactive are the calls of the source. The rule behind the calls is not given here.

Legend:
[1] = biological target: T1, Tyrosine-protein kinase JAK3 (Homo sapiens, UniProt P52333)
T1 sequence (P52333 whole entry): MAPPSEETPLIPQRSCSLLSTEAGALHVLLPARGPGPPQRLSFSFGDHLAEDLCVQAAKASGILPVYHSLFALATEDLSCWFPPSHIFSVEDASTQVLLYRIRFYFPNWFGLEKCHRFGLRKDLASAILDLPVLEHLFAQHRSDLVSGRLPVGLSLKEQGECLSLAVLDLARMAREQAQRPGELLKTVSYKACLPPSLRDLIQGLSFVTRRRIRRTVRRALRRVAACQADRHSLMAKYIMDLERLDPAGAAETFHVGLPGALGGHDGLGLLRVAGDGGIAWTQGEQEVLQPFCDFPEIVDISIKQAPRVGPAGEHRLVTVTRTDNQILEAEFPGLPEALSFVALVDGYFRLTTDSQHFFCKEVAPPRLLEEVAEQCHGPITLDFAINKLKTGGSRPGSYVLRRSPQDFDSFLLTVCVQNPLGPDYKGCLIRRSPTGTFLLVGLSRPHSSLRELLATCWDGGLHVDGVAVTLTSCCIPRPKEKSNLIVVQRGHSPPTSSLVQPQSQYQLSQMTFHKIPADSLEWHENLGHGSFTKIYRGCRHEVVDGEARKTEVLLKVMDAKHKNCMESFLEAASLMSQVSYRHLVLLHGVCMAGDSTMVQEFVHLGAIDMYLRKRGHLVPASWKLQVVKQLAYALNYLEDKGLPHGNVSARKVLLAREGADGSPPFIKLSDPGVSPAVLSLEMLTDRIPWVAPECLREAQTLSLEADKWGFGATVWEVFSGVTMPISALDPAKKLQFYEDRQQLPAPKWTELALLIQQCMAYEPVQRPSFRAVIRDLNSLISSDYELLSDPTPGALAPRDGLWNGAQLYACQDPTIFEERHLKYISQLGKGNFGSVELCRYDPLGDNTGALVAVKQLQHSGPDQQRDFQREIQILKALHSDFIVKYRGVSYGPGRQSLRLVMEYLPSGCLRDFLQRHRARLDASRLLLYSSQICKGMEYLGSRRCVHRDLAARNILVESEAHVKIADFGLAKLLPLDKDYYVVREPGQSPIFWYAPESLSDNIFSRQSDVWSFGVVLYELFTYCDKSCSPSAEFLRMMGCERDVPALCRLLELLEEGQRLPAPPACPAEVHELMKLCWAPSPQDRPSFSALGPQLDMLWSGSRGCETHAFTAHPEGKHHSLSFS
Description: Inhibition of JAK3 (unknown origin) using Kinase/Tyr 6 peptide as substrate incubated for 1 hrs in presence of ATP by fluorescence microplate reader analysis

[2] = biological target: Tyrosine-protein kinase JAK1 (Homo sapiens, UniProt P23458); experiment: Inhibition of JAK1 (unknown origin) using Kinase/Tyr 6 peptide as substrate incubated for 1 hrs in presence of ATP by fluorescence microplate reader analysis
Sequence of Tyrosine-protein kinase JAK1 (P23458 whole entry): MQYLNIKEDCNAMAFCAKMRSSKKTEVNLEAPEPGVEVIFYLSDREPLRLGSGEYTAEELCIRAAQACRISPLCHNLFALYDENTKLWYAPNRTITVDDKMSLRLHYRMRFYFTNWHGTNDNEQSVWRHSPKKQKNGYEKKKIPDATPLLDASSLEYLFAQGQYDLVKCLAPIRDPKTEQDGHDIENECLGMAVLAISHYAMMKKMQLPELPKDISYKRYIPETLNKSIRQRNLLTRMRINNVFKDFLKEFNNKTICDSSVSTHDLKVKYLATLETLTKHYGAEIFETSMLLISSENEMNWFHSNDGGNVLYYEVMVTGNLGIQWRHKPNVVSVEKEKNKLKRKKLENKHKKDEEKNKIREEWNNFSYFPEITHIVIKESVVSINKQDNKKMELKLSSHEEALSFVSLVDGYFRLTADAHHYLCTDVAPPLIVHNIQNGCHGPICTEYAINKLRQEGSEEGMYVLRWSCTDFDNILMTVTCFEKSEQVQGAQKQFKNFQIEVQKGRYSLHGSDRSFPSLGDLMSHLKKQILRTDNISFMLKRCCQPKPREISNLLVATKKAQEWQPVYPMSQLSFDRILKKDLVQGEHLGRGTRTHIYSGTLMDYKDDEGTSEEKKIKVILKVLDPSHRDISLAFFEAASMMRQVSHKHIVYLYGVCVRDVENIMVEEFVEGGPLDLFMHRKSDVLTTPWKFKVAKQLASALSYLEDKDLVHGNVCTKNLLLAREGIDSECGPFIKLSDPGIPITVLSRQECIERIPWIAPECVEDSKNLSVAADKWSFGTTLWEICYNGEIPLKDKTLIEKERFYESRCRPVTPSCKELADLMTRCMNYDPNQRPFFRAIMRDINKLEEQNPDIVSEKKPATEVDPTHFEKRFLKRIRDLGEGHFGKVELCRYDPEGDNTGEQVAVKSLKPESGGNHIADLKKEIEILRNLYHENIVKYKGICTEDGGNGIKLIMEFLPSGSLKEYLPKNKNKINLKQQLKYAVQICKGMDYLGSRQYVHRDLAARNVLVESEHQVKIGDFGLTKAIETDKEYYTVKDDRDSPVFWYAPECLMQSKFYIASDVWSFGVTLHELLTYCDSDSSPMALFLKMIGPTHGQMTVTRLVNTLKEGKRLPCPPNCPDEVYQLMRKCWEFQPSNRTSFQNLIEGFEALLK

[3] = biological target: Tyrosine-protein kinase JAK2 (Homo sapiens, UniProt O60674)
Sequence of Tyrosine-protein kinase JAK2 (O60674 whole entry): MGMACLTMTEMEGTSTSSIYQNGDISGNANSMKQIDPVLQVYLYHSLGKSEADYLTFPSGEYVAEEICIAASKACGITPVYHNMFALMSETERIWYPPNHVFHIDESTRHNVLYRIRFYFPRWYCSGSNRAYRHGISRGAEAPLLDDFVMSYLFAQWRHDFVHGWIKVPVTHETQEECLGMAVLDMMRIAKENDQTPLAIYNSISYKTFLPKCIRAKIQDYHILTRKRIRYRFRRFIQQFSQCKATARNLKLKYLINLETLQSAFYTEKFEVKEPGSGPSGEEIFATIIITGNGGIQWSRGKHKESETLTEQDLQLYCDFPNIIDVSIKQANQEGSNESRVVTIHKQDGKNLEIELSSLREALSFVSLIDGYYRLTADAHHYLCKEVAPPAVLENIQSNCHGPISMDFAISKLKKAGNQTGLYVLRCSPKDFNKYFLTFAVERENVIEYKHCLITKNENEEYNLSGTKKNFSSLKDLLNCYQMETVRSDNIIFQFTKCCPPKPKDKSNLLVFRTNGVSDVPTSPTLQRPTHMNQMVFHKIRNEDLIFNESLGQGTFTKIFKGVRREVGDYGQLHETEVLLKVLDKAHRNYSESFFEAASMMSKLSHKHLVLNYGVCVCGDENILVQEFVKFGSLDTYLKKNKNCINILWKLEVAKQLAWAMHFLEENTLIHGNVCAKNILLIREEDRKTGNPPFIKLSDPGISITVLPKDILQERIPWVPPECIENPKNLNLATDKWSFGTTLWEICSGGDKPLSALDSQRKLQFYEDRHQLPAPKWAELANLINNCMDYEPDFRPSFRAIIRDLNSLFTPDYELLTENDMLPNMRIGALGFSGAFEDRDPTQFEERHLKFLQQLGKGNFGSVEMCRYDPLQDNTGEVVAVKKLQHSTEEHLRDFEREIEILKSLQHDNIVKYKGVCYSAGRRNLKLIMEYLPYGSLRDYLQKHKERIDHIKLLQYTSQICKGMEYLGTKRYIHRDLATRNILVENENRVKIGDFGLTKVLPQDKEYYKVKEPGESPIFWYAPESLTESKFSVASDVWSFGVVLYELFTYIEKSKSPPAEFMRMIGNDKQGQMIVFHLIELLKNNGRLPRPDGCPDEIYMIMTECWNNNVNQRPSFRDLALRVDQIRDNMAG
Description: Inhibition of JAK2 (unknown origin) using Kinase/Tyr 6 peptide as substrate incubated for 1 hrs in presence of ATP by fluorescence microplate reader analysis

[4] = biological target: Nuclear factor NF-kappa-B complex (Homo sapiens, UniProt P19838+Q00653+Q04206); experiment: Inhibition of NF kappa B activation (unknown origin); type: protein-complex assay
Sequence of Nuclear factor NF-kappa-B complex (P19838 1-433 limits assumed): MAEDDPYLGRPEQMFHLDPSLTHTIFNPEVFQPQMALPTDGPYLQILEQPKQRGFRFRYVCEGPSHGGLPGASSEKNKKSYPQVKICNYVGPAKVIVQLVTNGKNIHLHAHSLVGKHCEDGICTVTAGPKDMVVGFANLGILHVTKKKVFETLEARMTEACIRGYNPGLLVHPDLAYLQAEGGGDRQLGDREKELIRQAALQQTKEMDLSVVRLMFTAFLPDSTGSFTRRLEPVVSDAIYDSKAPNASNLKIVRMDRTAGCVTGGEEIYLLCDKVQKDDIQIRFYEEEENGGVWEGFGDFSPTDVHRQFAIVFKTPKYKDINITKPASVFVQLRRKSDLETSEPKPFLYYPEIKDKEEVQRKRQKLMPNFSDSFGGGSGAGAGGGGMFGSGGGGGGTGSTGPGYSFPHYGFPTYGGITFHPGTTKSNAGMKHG
Sequence of Nuclear factor NF-kappa-B complex (Q00653 1-454 limits assumed): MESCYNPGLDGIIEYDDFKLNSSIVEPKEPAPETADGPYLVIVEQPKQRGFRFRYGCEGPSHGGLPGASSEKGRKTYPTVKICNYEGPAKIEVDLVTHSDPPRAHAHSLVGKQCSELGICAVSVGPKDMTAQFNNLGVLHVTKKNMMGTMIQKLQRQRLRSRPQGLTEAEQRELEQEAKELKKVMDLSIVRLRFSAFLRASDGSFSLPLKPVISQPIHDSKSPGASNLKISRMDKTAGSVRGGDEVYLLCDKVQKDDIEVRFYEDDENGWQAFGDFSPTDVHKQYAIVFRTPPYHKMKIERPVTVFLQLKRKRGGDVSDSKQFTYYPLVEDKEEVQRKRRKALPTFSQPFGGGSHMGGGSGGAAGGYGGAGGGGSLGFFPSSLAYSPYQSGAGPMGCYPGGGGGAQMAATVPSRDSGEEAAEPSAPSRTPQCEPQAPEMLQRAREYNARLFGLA
Sequence of Nuclear factor NF-kappa-B complex (Q04206 whole entry): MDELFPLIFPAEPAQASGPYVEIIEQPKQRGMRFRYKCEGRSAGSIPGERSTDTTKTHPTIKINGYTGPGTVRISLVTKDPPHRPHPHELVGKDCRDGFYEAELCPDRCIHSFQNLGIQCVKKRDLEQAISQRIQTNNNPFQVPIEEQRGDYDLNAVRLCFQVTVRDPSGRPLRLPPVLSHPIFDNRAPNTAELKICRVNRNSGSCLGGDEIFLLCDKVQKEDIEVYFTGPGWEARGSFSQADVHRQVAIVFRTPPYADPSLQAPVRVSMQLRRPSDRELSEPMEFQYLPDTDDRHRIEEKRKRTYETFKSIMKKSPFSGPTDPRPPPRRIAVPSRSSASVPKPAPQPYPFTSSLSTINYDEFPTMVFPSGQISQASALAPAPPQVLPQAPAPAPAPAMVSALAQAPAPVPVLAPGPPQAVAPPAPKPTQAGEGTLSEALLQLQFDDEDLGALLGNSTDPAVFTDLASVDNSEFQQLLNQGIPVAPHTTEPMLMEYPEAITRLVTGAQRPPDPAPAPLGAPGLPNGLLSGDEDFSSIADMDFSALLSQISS

[5] = Cytotoxicity against human THP1-Dual cells assessed as inhibition of cell growth measured after 24 hrs by CCK-8 method; type: toxicity, cell-based
Mus musculus [6] = experiment: Antiinflammatory activity in DSS-induced acute colitis C57BL/6 mouse model assessed as reduction in lamina propria damage in colon by measuring histopathological score at 100 mg/kg, po by H and E staining based analysis; type: functional, organism-based
Mus musculus [7] = experiment: Anti-inflammatory activity in TNBS induced IBD BALB/c mouse model assessed as reduction in weight by measuring disease activity index score at 100 mg/kg via oral gavage administered daily for 12 days measured daily; type: functional, organism-based; details: time 12.0 day
Mus musculus [8] = experiment: Antiinflammatory activity in DSS-induced acute colitis C57BL/6 mouse model assessed as reduction in inflammatory cell infiltration in colon by measuring histopathological score at 100 mg/kg, po by H and E staining based analysis; type: functional, organism-based
Mus musculus [9] = experiment: Antiinflammatory activity in DSS-induced acute enteritis C57BL mouse model assessed as suppression of DSS induced weight loss at 100 mg/kg, po administered daily and measured upto 11 days relative to control; type: functional; details: time <= 11 day
Mus musculus [10] = experiment: Anti-inflammatory activity in TNBS induced IBD BALB/c mouse model assessed as reduction in stool softness by measuring disease activity index score at 100 mg/kg via oral gavage administered daily for 12 days; type: functional, organism-based; details: time 12.0 day
Mus musculus [11] = experiment: Anti-inflammatory activity in TNBS induced IBD BALB/c mouse model assessed as reduction in bloody stool by measuring disease activity index score at 100 mg/kg via oral gavage administered daily for 12 days; type: functional, organism-based; details: time 12.0 day
Mus musculus [12] = experiment: Antiinflammatory activity in DSS-induced acute colitis C57BL/6 mouse model assessed as reduction in colon villi integrity in colon by measuring histopathological score at 100 mg/kg, po by H and E staining based analysis; type: functional, organism-based
Mus musculus [13] = experiment: Antiinflammatory activity in DSS-induced acute colitis C57BL/6 mouse model assessed as reduction in number of goblet cells in colon by measuring histopathological score at 100 mg/kg, po by H and E staining based analysis; type: functional, organism-based
Mus musculus [14] = experiment: Antiinflammatory activity in DSS-induced acute colitis C57BL/6 mouse model assessed as reduction in intestinal edema in colon by measuring histopathological score at 100 mg/kg, po by H and E staining based analysis; type: functional, organism-based

| Compound | IC50 [1] [nM] | IC50 [2] [nM] | further results |
| --- | --- | --- | --- |
| Cc1nc2cnc3ccc(-c4ccc(O)c(F)c4)cc3c2n1C1CCN(C)CC1 | > 500 | 30 | IC50 [3]: > 500 nM |
| Cc1nc2cnc3ccc(-c4ccc(O)cc4Cl)cc3c2n1C1CCN(C)CC1 | > 500 | 386 | – |
| Cc1nc2cnc3ccc(-c4ccccc4O)cc3c2n1C1CCN(C)CC1 | – | > 500 | – |
| Cc1nc2cnc3ccc(-c4ccc5c(c4)OCCO5)cc3c2n1C1CCN(C)CC1 | – | > 500 | – |
| Cc1nc2cnc3ccc(-c4ccc(F)c(O)c4)cc3c2n1C1CCN(C)CC1 | – | > 500 | – |
| Cc1nc2cnc3ccc(-c4cc(Cl)cc(Cl)c4)cc3c2n1C1CCN(C)CC1 | > 500 | > 500 | – |
| Cc1nc2cnc3ccc(-c4ccc(O)cc4F)cc3c2n1C1CCN(C)CC1 | > 500 | 237 | – |
| Cc1cc(-c2ccc3ncc4nc(C)n(C5CCN(C)CC5)c4c3c2)ccc1O | > 500 | 435 | – |
| Cc1cc(-c2ccc3ncc4nc(C)n(C5CCN(C)CC5)c4c3c2)cc(C)c1O | > 500 | 100 | – |
| Cc1nc2cnc3ccc(-c4ccc(N5CCOCC5)cc4)cc3c2n1C1CCN(C)CC1 | – | > 500 | – |
| Cc1nc2cnc3ccc(-c4ccc(O)c(Cl)c4)cc3c2n1C1CCN(C)CC1 | > 500 | 42.3 | – |
| O=C(c1ccccc1)c1ccc2nc(NC(=O)c3csc(C4CCN(c5ncnc6ccsc56)CC4)n3)[nH]c2c1 | – | – | IC50 [4]: 200 nM |
| Cc1nc2cnc3ccc(-c4ccc(O)c(C#N)c4)cc3c2n1C1CCN(C)CC1 | > 500 | 236 | – |
| Cc1nc2cnc3ccc(-c4ccc(O)c(C(F)(F)F)c4)cc3c2n1C1CCN(C)CC1 | > 500 | > 500 | – |
| Nc1ccc(O)c(C(=O)O)c1 [MESALAMINE] | – | – | Activity (Mus musculus [6]): Active; Activity (Mus musculus [7]): Active; Activity (Mus musculus [8]): Active; Activity (Mus musculus [9]): 11.69%; Activity (Mus musculus [10]): Active; Activity (Mus musculus [11]): Active; Activity (Mus musculus [12]): Active; Activity (Mus musculus [13]): Active; Activity (Mus musculus [14]): Active |
| Cc1nc2cnc3ccc(-c4ccc(O)cc4)cc3c2n1C1CCN(C)CC1 | > 500 | 560 | – |
| COc1cc(-c2ccc3ncc4nc(C)n(C5CCN(C)CC5)c4c3c2)ccc1O | > 500 | 776 | – |

More lines, in order of falling IC50 [2], values ahead:

| IC50 [1] [nM] | IC50 [2] [nM] | Compound | further results |
| --- | --- | --- | --- |
| > 500 | 19.4 | Cc1nc2cnc3ccc(-c4cc(F)c(O)c(F)c4)cc3c2n1C1CCN(C)CC1 | IC50 [3]: > 500 nM |
| 63 | 16.7 | Cc1nc2cnc3ccc(-c4cc(Cl)c(O)c(Cl)c4)cc3c2n1[C@H]1CC[C@H](N(C)C)CC1 | – |
| 127 | 11.9 | Cc1nc2cnc3ccc(-c4cc(F)c(O)c(Cl)c4)cc3c2n1C1CCN(C)CC1 | IC50 [3]: 136 nM |
| 20.2 | 9.9 | Cc1nc2cnc3ccc(-c4cc(Cl)c(O)c(Cl)c4)cc3c2n1[C@H]1CC[C@H](O)CC1 | – |
| 62 | 7.4 | Cc1nc2cnc3ccc(-c4cc(Cl)c(O)c(Cl)c4)cc3c2n1C1CCN(CN(C)C)CC1 | – |
| 15.4 | 7.2 | Cc1nc2cnc3ccc(-c4cc(Cl)c(O)c(Cl)c4)cc3c2n1[C@H]1CC[C@H](CO)CC1 | IC50 [3]: 12.6 nM |
| 20.8 | 6.8 | Cc1nc2cnc3ccc(-c4cc(Cl)c(O)c(Cl)c4)cc3c2n1C1CCOCC1 | IC50 [3]: 22.6 nM |
| 4.9 | 6.6 | Cc1nc2cnc3ccc(-c4cc(Cl)c(O)c(Cl)c4)cc3c2n1C1CCCN(C)C1 (stereo not drawn) | – |
| 19.6 | 5.5 | Cc1nc2cnc3ccc(-c4cc(Cl)c(O)c(Cl)c4)cc3c2n1[C@H]1CCCN(C)C1 | – |
| 3.2 | 2.6 | Cc1nc2cnc3ccc(-c4cc(Cl)c(O)c(Cl)c4)cc3c2n1[C@@H]1CCCN(C)C1 | IC50 at 24 h [5]: 2000 nM; IC50 [3]: 13.5 nM |
